Where two headings read alike, the source gives them in different places.
Experiments:
Format in all cases: in vivo, human
LDL = assay: Fasting lipid panel: LDL, CHASE clinical study; settings: Group Z 48 mg BID; baseline to Week 12; subjects with hyperlipidemia
Text: Blood samples shall be obtained under fasted conditions for a lipid panel at V2, V4, V6, V7, and V8. This panel shall include total cholesterol, LDL-C, VLDL-C, HDL-C, and triglycerides. A minimum eight-hour fast (water allowed) is required for the lipid panel.
Fasting lipid profiles and fasting chemistry panels may be obtained within the visit time window on a day separate from the scheduled office visit, within two days before or after the other study procedures. A minimum of eight hours fasted (water allowed ad lib) is required.
(§1) Table 7M provides the changes in lipid levels (mg/dL) (V2 to V6) for subjects.

Oxidized LDL = assay: Oxidized LDL, CHASE clinical study; design: Oxidized LDL Mean (SD) / Oxidized LDL Median / Oxidized LDL Min / Oxidized LDL Max / Oxidized LDL V2 to V6 Change Median / Oxidized LDL V2 to V6 Change Max: unit not given here; settings: all subjects; for Oxidized LDL V2 to V6 % Change Max / Oxidized LDL V2 to V6 % Change Mean (SD) / Oxidized LDL V2 to V6 % Change Median / Oxidized LDL V2 to V6 % Change Min / Oxidized LDL V2 to V6 Change Max / Oxidized LDL V2 to V6 Change Mean (SD) / Oxidized LDL V2 to V6 Change Median / Oxidized LDL V2 to V6 Change Min: baseline to Week 12
Text: Samples shall be obtained for TNF-α, IL-1β, IL-6, IFN-γ, and oxLDL at V2, V4, V6, and V8 I.
as §1

[1] = Astaxanthin levels in plasma (PK), CHASE clinical study; settings: for concentration at 12 week: human, oral
Text: Blood samples shall be collected for astaxanthin analysis at V2, V4, V6, and V8.
The approximate time of the most recent dose prior to PK sampling shall be documented. PK sampling is sparse, sample acquisition in relationship to the most recent dose will vary, and formal PK calculations (e.g., Tmax, Cmax, T1/2, AUC) are not possible from the collections scheduled. Analysis will consist of a tabular listing and comparison by treatment group with calculation of the mean, median, standard deviation, maximum, and minimum at the nominal visits. Sub-analysis by subject demographic and clinical characteristics (e.g., gender, age, weight, and smoking status) may be performed at the discretion of the Sponsor.
PK samples will be collected into a 6.0 mL K2EDTA tube, gently inverted sufficient times to mix the sample and anticoagulant, and placed in an ice bath for 15 minutes.
The blood samples will be centrifuged at 3500 rpm for ten minutes at room temperature for 10 minutes. Any hemolyzed or clotted samples will be documented in the study data.
All resultant plasma will be split into two approximately equal aliquots and frozen at −60 to −90° C. Samples may be initially placed on dry ice prior to being stored in the appropriate freezer.

[2] = Group X 12 mg BID, V2 baseline pre-dose
[3] = Group Z 48 mg BID, V2 baseline pre-dose
[4] = Group X 12 mg BID, V2 baseline pre-dose, BQL (less than 9.77 ng/mL) treated as 4.885
[5] = Group Z 48 mg BID, V2 baseline pre-dose, BQL (less than 9.77 ng/mL) treated as 4.885

astaxanthin levels Max [1, 4]: 4.89, 4.89 ng/mL | astaxanthin levels Mean (SD) [1, 4]: 4.89 (0.00) ng/mL | astaxanthin levels Median [1, 4]: 4.89 ng/mL | astaxanthin levels Min [1, 4]: 4.89, 4.89 ng/mL | astaxanthin levels Max ([1]; Group X 12 mg BID, V6 Week 12): 1282 ng/mL | astaxanthin levels Min ([1]; Group X 12 mg BID, V6 Week 12): 190.9 ng/mL | astaxanthin levels Max [1, 5]: 221.0 ng/mL | astaxanthin levels Mean (SD) [1, 5]: 17.12 (49.44) ng/mL | astaxanthin levels Median [1, 5]: 4.89 ng/mL | astaxanthin levels Min [1, 5]: 4.89 ng/mL | astaxanthin levels Max ([1]; Group Z 48 mg BID, V6 Week 12): 7030 ng/mL | astaxanthin levels Min ([1]; Group Z 48 mg BID, V6 Week 12): 409.0 ng/mL | concentration at 12 week ([1]; 12 mg, Group X 12 mg BID, V6 Week 12, read-out: astaxanthin levels Mean (SD)): 785 ng/mL | concentration at 12 week ([1]; 12 mg, Group X 12 mg BID, V6 Week 12, read-out: astaxanthin levels Median): 790 ng/mL | concentration at 12 week ([1]; 48 mg, Group Z 48 mg BID, V6 Week 12, read-out: astaxanthin levels Mean (SD)): 2590 ng/mL | concentration at 12 week ([1]; 48 mg, Group Z 48 mg BID, V6 Week 12, read-out: astaxanthin levels Median): 2180 ng/mL
SMILES: CC1=C(/C=C/C(C)=C/C=C/C(C)=C/C=C/C=C(C)/C=C/C=C(C)/C=C/C2=C(C)C(=O)C(O)CC2(C)C)C(C)(C)CC(O)C1=O (centres unmarked) [Astaxanthin, astaxanthin]
LDL V2 to V6 % Change Max (LDL): 15.00% | LDL V2 to V6 % Change Mean (SD) (LDL): −17.4 (18.43) % | LDL V2 to V6 % Change Median (LDL): −12.5% | LDL V2 to V6 % Change Min (LDL): −50.0% | LDL V2 to V6 Change Max (LDL): 9.00 mg/dL | LDL V2 to V6 Change Mean (SD) (LDL): −20.5 (26.25) mg/dL | LDL V2 to V6 Change Median (LDL): -11.0 mg/dL | LDL V2 to V6 Change Min (LDL): -83.0 mg/dL | Oxidized LDL Max (Oxidized LDL; [2]): 87.00 | Oxidized LDL Mean (SD) (Oxidized LDL; [2]): 51.64 (18.34) | Oxidized LDL Median (Oxidized LDL; [2]): 49.00 | Oxidized LDL Min (Oxidized LDL; [2]): 29.00 | Oxidized LDL Max (Oxidized LDL; Group X 12 mg BID, V6 Week 12): 85.00 | Oxidized LDL Mean (SD) (Oxidized LDL; Group X 12 mg BID, V6 Week 12): 51.18 (17.62) | Oxidized LDL Median (Oxidized LDL; Group X 12 mg BID, V6 Week 12): 46.00 | Oxidized LDL Min (Oxidized LDL; Group X 12 mg BID, V6 Week 12): 34.00 | Oxidized LDL V2 to V6 % Change Max (Oxidized LDL; Group X 12 mg BID): 17.24% | Oxidized LDL V2 to V6 % Change Mean (SD) (Oxidized LDL; Group X 12 mg BID): 0.41 (12.46) % | Oxidized LDL V2 to V6 % Change Median (Oxidized LDL; Group X 12 mg BID): 2.86% | Oxidized LDL V2 to V6 % Change Min (Oxidized LDL; Group X 12 mg BID): −26.0% | Oxidized LDL V2 to V6 Change Max (Oxidized LDL; Group X 12 mg BID): 6.00 | Oxidized LDL V2 to V6 Change Mean (SD) (Oxidized LDL; Group X 12 mg BID): −0.45 (5.65) | Oxidized LDL V2 to V6 Change Median (Oxidized LDL; Group X 12 mg BID): 1.00 | Oxidized LDL V2 to V6 Change Min (Oxidized LDL; Group X 12 mg BID): −13.0 | Oxidized LDL Max (Oxidized LDL; [3]): 86.00 | Oxidized LDL Mean (SD) (Oxidized LDL; [3]): 55.00 (17.80) | Oxidized LDL Median (Oxidized LDL; [3]): 59.00 | Oxidized LDL Min (Oxidized LDL; [3]): 24.00 | Oxidized LDL Max (Oxidized LDL; Group Z 48 mg BID, V6 Week 12): 77.00 | Oxidized LDL Mean (SD) (Oxidized LDL; Group Z 48 mg BID, V6 Week 12): 46.22 (15.21) | Oxidized LDL Median (Oxidized LDL; Group Z 48 mg BID, V6 Week 12): 48.00 | Oxidized LDL Min (Oxidized LDL; Group Z 48 mg BID, V6 Week 12): 25.00 | Oxidized LDL V2 to V6 % Change Max (Oxidized LDL; Group Z 48 mg BID): 24.39% | Oxidized LDL V2 to V6 % Change Mean (SD) (Oxidized LDL; Group Z 48 mg BID): −12.7 (19.64) % | Oxidized LDL V2 to V6 % Change Median (Oxidized LDL; Group Z 48 mg BID): −10.1% | Oxidized LDL V2 to V6 % Change Min (Oxidized LDL; Group Z 48 mg BID): −43.8% | Oxidized LDL V2 to V6 Change Max (Oxidized LDL; Group Z 48 mg BID): 10.00 | Oxidized LDL V2 to V6 Change Mean (SD) (Oxidized LDL; Group Z 48 mg BID): −8.22 (12.33) | Oxidized LDL V2 to V6 Change Median (Oxidized LDL; Group Z 48 mg BID): −4.00 | Oxidized LDL V2 to V6 Change Min (Oxidized LDL; Group Z 48 mg BID): −36.0
